According to patent US4354039A, “Chlorocitric acids” (Hoffmann-La Roche Inc., priority 1981, dated 1982):

Columns and labels:
[1] = Total body fat in meal-fed rats, oral, 17 day study (Example 22); type: in vivo, Charles River female rats; conditions: Chow, 17 days
Protocol: Two month old Charles River female rats (Charles River Breeding Laboratories, Wilmington, Mass.) were individually housed in wire-bottomedcages in a temperature-regulated (22° C.) light-controlled room (12 hr light, 6 a.m. to 6 p.m. and 12 hr dark, 6 p.m. to 6 a.m.). […] On the 8th day, the animals were administered water or (-)-threo-chlorocitric acid at the indicated concentration by oral intubation 30 min before the 3 hr meal. Treatment was continued for 17 days. Food cups were weighed immediately after the meal. After 17 days of treatment, rats were killed by decapitation and blood was removed. […] C. Sullivan, et al, Am. J. Clinical Nutrition, 30 767 (1977). […] Total carcass and lipid data are expressed in grams and percentages of carcass weight.

[2] = Anorectic activities of stereoisomers, 3-day food consumption and body weight gain (Example 16); type: in vivo, Charles River female rats; conditions: 1.32 mmoles/kg oral, 3 days
Protocol: Charles River female rats (Charles River Breeding Laboratories, Wilmington, Mass.), weighing 196 to 210 g, were individually housed in wire-bottomed cages in a temperature-regulated (22° C.) light-controlled room (12 hr light, 6 a.m. to 6 p.m. and 12 hr dark, 6 p.m. to 6 a.m.). Animals were fasted 48 hr, then meal-fed a 70% glucose diet from 8 to 11 a.m. Following 5 to 12 days alimentation on the meal-feeding regimen, rats were dosed with the appropriate compounds orally by intubation 1/2 hr before the 3 hr meal for 3 days. The total food consumption and body weight gained during the 3 day period were determined. The control group consisted of 16 rats, while the experimental group consists of 8 rats.

[3] = Body weight and food intake in meal-fed rats, 16 day study (Example 19); type: in vivo, Charles River female rats; conditions: baseline
Protocol: Two month old Charles River female rats (Charles River Breeding Laboratories, Wilmington, Mass.) were individually housed in wire-bottomedcages in a temperature-regulated (22° C.) light-controlled room (12 hr light, 6 a.m. to 6 p.m. and 12 hr dark, 6 p.m. to 6 a.m.). […] (1) control, (2) (-)-threo-chlorocitric acid (1.0 mmoles/kg, 227 mg/kg) administered by oral intubation 30 min before the 3 hr meal, and (3) (-)-threo-chlorocitric acid (1.1 mmoles/kg, 250 mg/kg) as a dietary admixture for the 3 hr meal. Treatment was continued for 16 days. The amount of body weight gained and food consumed during the study were determined.

[4] = Effect on stomach emptying, [14C] glucose load (Example 25); type: in vivo, Rats; conditions: 0.33 mmoles/kg oral, 60 min after [14C] glucose load
Protocol: Rats were trained to consume a 3 hr 70% glucose meal from 8 a.m. to 11 a.m. daily. On the experimental day, compounds were administered orally by intubation 30 min before a [^14 C] glucose load was given also by intubation. […] Sixty minutes later the rats were killed by decapitation; blood and stomachs were collected on ice.
Data are expressed as follows: dpm×10^3 per ml of serum and dpm×10^3 per stomach.

[5] = Anorectic activity, acute, pyramiding dose and chronic studies (summary statements); type: in vivo, mammals; conditions: in words
[6] = Food intake in dogs, pyramiding oral doses (Examples 26 and 27); type: in vivo, beagle dogs
Protocol: Twelve beagle dogs of both sexes weighing 7.6-12.2 kg were used for this test. The test compounds were contained in gelatin capsules for oral administration to two dogs of each sex. The animals were weighed and food consumption calculated daily excluding weekends throughout the test period. Each animal received 800 grams of diet daily consisting of 400 grams of Wayne pellet dog food mixed with 400 ml distilled water. The animals received pyramiding oral doses of the test compound over the three week period. On Monday and Tuesday of the first week the animals were weighed and food consumption was recorded (control). […] Doses of 30, 100 and 300 mg/kg were administered on Monday, Wednesday and Friday respectively during the second week. A final dose of 1000 mg/kg was administered on Monday of the third week.
Food intake was determined by the procedure at pyramiding doses described in EXAMPLE 26.

[7] = test day 8, dose 100 mg/kg oral
[8] = test day 10, dose 300 mg/kg oral
[9] = test day 13, dose 1000 mg/kg oral

O=C(O)C[C@@](O)(C(=O)O)[C@@H](Cl)C(=O)O [(-)-threo-Chlorocitric acid]
Carcass Lipid % carcass, % of control ([1]; 0.25 mmoles (57 mg)/kg oral): 99 % of control
Carcass Lipid total, % of control ([1]; 0.25 mmoles (57 mg)/kg oral): 101 % of control
Carcass Lipid, % carcass ([1]; 0.25 mmoles (57 mg)/kg oral): 4.56 ± 0.42 % carcass
Carcass Lipid, total ([1]; 0.25 mmoles (57 mg)/kg oral): 9.64 ± 0.80 g
Carcass Weight ([1]; 0.25 mmoles (57 mg)/kg oral): 213 ± 4 g
Carcass Lipid % carcass, % of control ([1]; 0.50 mmoles (114 mg)/kg oral): 58 % of control
Carcass Lipid total, % of control ([1]; 0.50 mmoles (114 mg)/kg oral): 50 % of control
Carcass Lipid, % carcass ([1]; 0.50 mmoles (114 mg)/kg oral): 2.70 ± 0.17 % carcass
Carcass Lipid, total ([1]; 0.50 mmoles (114 mg)/kg oral): 4.80 ± 0.48 g
Carcass Weight ([1]; 0.50 mmoles (114 mg)/kg oral): 173 ± 4 g
Carcass Lipid % carcass, % of control ([1]; 1.00 mmoles (227 mg)/kg oral): 52 % of control
Carcass Lipid total, % of control ([1]; 1.00 mmoles (227 mg)/kg oral): 41 % of control
Carcass Lipid, % carcass ([1]; 1.00 mmoles (227 mg)/kg oral): 2.40 ± 0.22 % carcass
Carcass Lipid, total ([1]; 1.00 mmoles (227 mg)/kg oral): 3.92 ± 0.37 g
Carcass Weight ([1]; 1.00 mmoles (227 mg)/kg oral): 163 ± 7 g
3-Day Body Weight Gain, % of initial body weight [2]: -11.0 % of initial body weight
3-Day Food Consumption, % of control [2]: 37 % of control
IBW, initial body weight ([3]; dietary admixture 1.1 mmoles (250 mg)/kg/day): 192 ± 5 g
IBW, initial body weight ([3]; oral intubation 1.0 mmoles (227 mg)/kg/day): 189 ± 3 g
Serum, % of control [4]: 33 % of control
Stomach Contents, % of control [4]: 312 % of control
activity in the acute meal-fed assay utilizing three diets and in pyramiding dose studies, reduction in food consumption [5]: significantly more active
appetite suppression and reduction of body weight gain ([5]; short- and long-term chronic studies): suppressed appetite and reduced body weight gain in mammals more efficaciously than hydroxycitric acid or citric acid
Food Consumption ([6]; test day 1, dose 3 mg/kg oral): 450 ± 165 g
Food Consumption, % of control ([6]; test day 1, dose 3 mg/kg oral): 60 % of control
Food Consumption ([6]; test day 2, no dose): 646 ± 83 g
Food Consumption, % of control ([6]; test day 2, no dose): 87 % of control
Food Consumption ([6]; test day 3, dose 10 mg/kg oral): 440 ± 121 g
Food Consumption, % of control ([6]; test day 3, dose 10 mg/kg oral): 59 % of control
Food Consumption ([6]; test day 6, dose 30 mg/kg oral): 406 ± 86 g
Food Consumption, % of control ([6]; test day 6, dose 30 mg/kg oral): 55 % of control
Food Consumption ([6]; test day 7, no dose): 668 ± 115 g
Food Consumption, % of control ([6]; test day 7, no dose): 90 % of control
Food Consumption [6, 7]: 142 ± 38 g
Food Consumption, % of control [6, 7]: 19 % of control
Food Consumption ([6]; test day 9, no dose): 619 ± 62 g
Food Consumption, % of control ([6]; test day 9, no dose): 83 % of control
Food Consumption [6, 8]: 55 ± 39 g
Food Consumption, % of control [6, 8]: 7 % of control
Food Consumption [6, 9]: 56 ± 22 g
Food Consumption, % of control [6, 9]: 8 % of control
Food Consumption ([6]; test day 14, no dose): 439 ± 163 g
Food Consumption, % of control ([6]; test day 14, no dose): 59 % of control
Food Consumption ([6]; test day 15, no dose): 583 ± 149 g
Food Consumption, % of control ([6]; test day 15, no dose): 78 % of control
Food Consumption ([6]; test day 16, no dose): 600 ± 76 g
Food Consumption, % of control ([6]; test day 16, no dose): 81 % of control
Food Consumption ([6]; test day 17, no dose): 677 ± 73 g
Food Consumption, % of control ([6]; test day 17, no dose): 91 % of control
Food Consumption ([6]; test day 21, no dose): 644 ± 100 g
Food Consumption, % of control ([6]; test day 21, no dose): 87 % of control
Food Consumption ([6]; test day 22, no dose): 800 ± 0 g
Food Consumption, % of control ([6]; test day 22, no dose): 108 % of control
Food Consumption ([6]; test day 23, no dose): 596 ± 121 g
Food Consumption, % of control ([6]; test day 23, no dose): 80 % of control
Food Consumption ([6]; test day 24, no dose): 695 ± 79 g
Food Consumption, % of control ([6]; test day 24, no dose): 94 % of control
Food Consumption ([6]; test day 27, no dose): 732 ± 68 g
Food Consumption, % of control ([6]; test day 27, no dose): 99 % of control
Food Consumption ([6]; test day 28, no dose): 775 ± 26 g
Food Consumption, % of control ([6]; test day 28, no dose): 104 % of control
